Experimental data as given in paper PMC11656837, “pH-Responsive Peptide Nanoparticles Deliver Macromolecules to Cells via Endosomal Membrane Nanoporation” (ACS Nano, 2024).

Legend:
[1] = tested on: HeLa cells; assay: Cytosolic delivery of AF488-dextran 10 kDa (confocal microscopy); type: cell-based, human
Experimental: Just before imaging, cell nuclei were stained with Hoechst 33342 (blue); the external AF488-dextran was washed away, and AF647-dextran (lavender) was added to mark the extracellular spaces and cell boundaries. […] Individual intensity scans across single cells, indicated by the yellow arrows, are plotted in Figure 5E,F as examples. To measure cytosolic dextran concentrations, dextran intensity was measured in the external spaces, where it is at background levels and in puncta-free, nuclear/cytosolic areas of each cell.
These experiments were done using a very low solution concentration of 0.1 μM AF488-dextran 10 kDa to minimize any possible self-quenching in endosomes and to minimize any osmotic effect of the dextran on endosomal stability. […] Before imaging, the AF488-dextran was washed off, and Cascade Blue dextran 10 kDa was added to mark the external spaces and cell boundaries. […] Dextran delivered to the cytosol and nucleus, which was the only intensity that we measured in Figure 6A,B, was identified by its diffuse and uniform intensity in the nucleus and cytosol of each cell. In Figure 6E, cytosolic and nuclear concentrations of dextran are expressed as a percent of the external concentration incubated with cells based on comparison to a standard curve of fluorescence intensity versus concentration that was measured separately at the same instrument settings.
After overnight incubation, external AF488-dextran (green) was washed off and replaced with Cascade Blue dextran (blue) or AF647-dextran (lavender) just before imaging to mark the external spaces and cell boundaries. Cells were also treated with Hoechst 33342 (blue) to stain the nuclei. Quantitation was performed by generating a standard curve from microscopy images of solutions of AF488-dextran of known concentrations. For quantification, we noted the intensity of the cell nuclei. Multiple small circular areas of interest of a preset size were selected in cells in areas that were in the nucleus or had no obvious puncta. The same was done for the standard curve images. The fluorescence of each point of interest was quantified using the Nikon Elements software, and the concentration was determined using a standard curve and expressed as a percent of the initial incubating concentration.

[2] = Experimental: This was done by incubating 50 μM peptide under each experimental condition for 60 min, followed by centrifugation at 1400g to remove large aggregates, and by subsequent centrifugation at 11,000g to remove intermediate aggregates. Peptide concentration in solution before and after centrifugation was determined by reverse phase HPLC.
Dried peptides were reconstituted in 50 μL of PBS at pH 7 or at pH 5. The solutions were bath-sonicated briefly and incubated at room temperature for 30 min. Three aliquots of each sample were removed for analysis: one before centrifugation, one after centrifugation for 5 min at 1400g, and one after centrifugation for 10 min at 11,000g. These aliquots were diluted and analyzed by reverse phase HPLC. The integrated peak area of the tryptophan fluorescence peak was determined for each sample.

[3] = Tryptophan fluorescence emission (water exposure of Trp19); type: physicochemical; details: buffer pH 7, no vesicles, 25 μM peptide in PBS
Text: Here, in Figure 8, we examine the solution behavior of C16-D-pHD108 using tryptophan fluorescence to measure the water exposure of the tryptophan residue at position 19, Figure 1, and using circular dichroism spectroscopy to measure the secondary structure.
In Figure 8B, we show tryptophan emission spectra for the same three samples.

[4] = tested on: HeLa cells; assay: Cell binding (peptide remaining in solution by HPLC); type: cell-based, human; details: HeLa 10^6 cells/ml in PBS pH 7, 20 μM peptide, 30 min, room temperature, supernatant by HPLC
Experimental: This was done by equilibrating a peptide solution with and without cells for 30 min, followed by measurement of the peptide remaining in solution using reverse phase HPLC. […] The cells were also stained with the DNA staining dye Hoechst 33342. […] Cell/membrane staining by C16-D-pHD108-TAMRA continues to grow rapidly as peptides accumulate on the membranes.
HeLa or RAW 264.7 cells were trypsinized, washed, and counted. Cells were concentrated in a minimal amount of PBS. To measure binding, 25 μL of cells at a known count were transferred to tubes and 25 μL of peptide in PBS was added for a final peptide concentration of 20 μM. Samples were incubated for 30 min with gentle agitation at room temperature. Cells were pelleted in a swinging bucket centrifuge, and 30 μL of supernatant was subjected to HPLC to measure the peptide remaining in the solution. A sample without cells but treated identically was used as a negative control for binding to normalize the recovered peptide.

Structure (SMILES): CCCCCCCCCCCCCCCC(=O)NCC(=O)N[C@@H](C(=O)NCC(=O)N[C@H](CCC(=O)O)C(=O)N[C@@H](C(=O)N[C@H](CC(C)C)C(=O)N[C@H](Cc1c[nH]cn1)C(=O)N[C@H](CCC(=O)O)C(=O)N[C@H](CC(C)C)C(=O)N[C@H](C)C(=O)N[C@H](CCC(=O)O)C(=O)NCC(=O)N[C@H](CC(C)C)C(=O)N1CCC[C@@H]1C(=O)N[C@H](CCC(=O)O)C(=O)N[C@H](CC(C)C)C(=O)N[C@H](CCC(N)=O)C(=O)N[C@H](CCC(=O)O)C(=O)N[C@H](Cc1c[nH]c2ccccc12)C(=O)N[C@@H](C(=O)N[C@H](Cc1c[nH]cn1)C(=O)N[C@H](C)C(=O)N[C@H](C)C(=O)N[C@H](CCC(N)=O)C(=O)N[C@H](CCC(N)=O)C(=O)N[C@H](CC(C)C)C(N)=O)[C@H](C)CC)C(C)C)[C@H](C)CC [C16-D-pHD108]
- cytosolic dextran concentration ([1]; 3 μM peptide, 0.1 μM AF488-dextran 10 kDa, overnight, 37 °C): Low but statistically significant
- cytosolic dextran concentration, average, percent of applied external concentration ([1]; 25 μM peptide, 0.1 μM AF488-dextran 10 kDa, overnight, 37 °C, ~50 cells): about 12%
- dextran staining of nucleus and cytosol ([1]; 25 μM peptide, 25 μM AF488-dextran 10 kDa, overnight, 37 °C): diffusely and uniformly stained with dextran
- delivery of dextran to the cytosol at 4 °C ([1]; 25 μM peptide, 4 °C): does not enable any measurable delivery of dextran to the cytosol
- plasma membrane permeabilization (entry of Cascade Blue dextran added before imaging) ([1]; 25 μM peptide, 37 °C): not permeabilized
- cytosolic delivery of AF488-dextran, C16-L-pHD108 compared with C16-D-pHD108 ([1]; HeLa, overnight, 37 °C): significantly more active
- solubility after dissolving at pH 7 and decreasing to pH 5 ([2]; 50 μM, pH 7 then pH 5, centrifugation, reverse phase HPLC): became insoluble
- solubility at pH 5 ([2]; from dried peptide, 50 μM in PBS pH 5, centrifugation 1400g then 11,000g, reverse phase HPLC): almost none of the peptides went into solution
- solubility and stability to centrifugation at pH 7 ([2]; from dried peptide, 50 μM in PBS pH 7, bath sonication, 60 min, room temperature, centrifugation 1400g then 11,000g, reverse phase HPLC (Trp fluorescence peak area)): remains soluble at pH 7 and is not removed by centrifugation
- solubility in buffer / PBS at pH 7 ([2]; pH 7, buffer or PBS): soluble in PBS and remained in solution at pH 7 for days
- tryptophan fluorescence emission maximum [3]: 330 nm
- binding to cells at pH 7 [4]: no measurable binding
